The source made the active and inactive calls. The rule behind the calls is not given here.
What was measured:
[1] = biological target: T1, Interleukin-1 receptor-associated kinase 4 (Homo sapiens, UniProt Q9NWZ3); assay: Inhibition of IRAK4 (unknown origin) in presence of 5 mM ATP by enzymatic assay
T1 sequence (Q9NWZ3 whole entry): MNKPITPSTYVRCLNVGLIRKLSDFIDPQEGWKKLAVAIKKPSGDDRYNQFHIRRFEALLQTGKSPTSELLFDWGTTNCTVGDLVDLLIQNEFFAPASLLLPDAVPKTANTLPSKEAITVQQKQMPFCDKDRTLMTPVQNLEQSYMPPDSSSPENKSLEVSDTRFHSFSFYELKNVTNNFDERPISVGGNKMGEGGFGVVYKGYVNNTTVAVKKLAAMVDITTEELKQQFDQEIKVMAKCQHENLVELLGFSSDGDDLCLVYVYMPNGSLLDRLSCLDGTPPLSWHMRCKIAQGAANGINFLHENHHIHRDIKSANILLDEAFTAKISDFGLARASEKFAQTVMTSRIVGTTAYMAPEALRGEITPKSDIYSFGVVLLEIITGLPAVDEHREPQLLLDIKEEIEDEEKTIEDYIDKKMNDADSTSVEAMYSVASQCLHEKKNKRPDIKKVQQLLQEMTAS

[2] = biological target: T1, Interleukin-1 receptor-associated kinase 4; assay: Inhibition of IRAK4 (unknown origin) by cell based assay
[3] = Lipophilicity, logD of the compound at pH 7.4 by shake-flask assay; type: physicochemical; details: buffer
[4] = Intrinsic clearance in rat hepatocytes assessed per million cells; type: ADME, cell-based, Hepatocyte; details: read-out: CLH
[5] = Intrinsic clearance in human hepatocytes assessed per million cells; type: ADME, cell-based, Hepatocyte; details: read-out: CLH
[6] = Intrinsic permeability in human Caco2 cells; type: ADME, cell-based; details: Caco-2
[7] = Efflux ratio in human Caco2 cells; type: ADME, cell-based; details: Caco-2
[8] = Clearance in rat at 0.5 mg/kg, iv; type: ADME, organism-based; details: in vivo
[9] = Oral bioavailability in rat at 1 mg/kg; type: ADME, organism-based; details: in vivo
OCI-Ly10 [10] = assay: Growth inhibition of human OCI-LY10 cells at 0.3 nM incubated for 3 days by Alamar blue dye based fluorescence assay (reference value: 3%); type: functional; details: OCI-Ly10, 72 h, read-out: GI
OCI-Ly10 [11] = assay: Growth inhibition of human OCI-LY10 cells at 2.1 nM incubated for 3 days by Alamar blue dye based fluorescence assay (reference value: 3%); type: functional; details: OCI-Ly10, 72 h, read-out: GI
OCI-Ly10 [12] = assay: Growth inhibition of human OCI-LY10 cells at 4.2 nM incubated for 3 days by Alamar blue dye based fluorescence assay (reference value: 3%); type: functional; details: OCI-Ly10, 72 h, read-out: GI
OCI-Ly10 [13] = assay: Growth inhibition of human OCI-LY10 cells at 10 nM incubated for 3 days by Alamar blue dye based fluorescence assay (reference value: 3%); type: functional; details: OCI-Ly10, 72 h, read-out: GI
OCI-Ly10 [14] = assay: Growth inhibition of human OCI-LY10 cells at 42 nM incubated for 3 days by Alamar blue dye based fluorescence assay (reference value: 3%); type: functional; details: OCI-Ly10, 72 h, read-out: GI
OCI-LY19 [15] = assay: Growth inhibition of human OCI-LY19 cells at 0.3 nM incubated for 3 days by Alamar blue dye based fluorescence assay (reference value: 3%); type: functional; details: OCI-LY19, 72 h, read-out: GI
OCI-LY19 [16] = assay: Growth inhibition of human OCI-LY19 cells at 2.1 nM incubated for 3 days by Alamar blue dye based fluorescence assay (reference value: 3%); type: functional; details: OCI-LY19, 72 h, read-out: GI
OCI-LY19 [17] = assay: Growth inhibition of human OCI-LY19 cells at 4.2 nM incubated for 3 days by Alamar blue dye based fluorescence assay (reference value: 3%); type: functional; details: OCI-LY19, 72 h, read-out: GI
OCI-LY19 [18] = assay: Growth inhibition of human OCI-LY19 cells at 10 nM incubated for 3 days by Alamar blue dye based fluorescence assay (reference value: 3%); type: functional; details: OCI-LY19, 72 h, read-out: GI
OCI-LY19 [19] = assay: Growth inhibition of human OCI-LY19 cells at 42 nM incubated for 3 days by Alamar blue dye based fluorescence assay (reference value: 3%); type: functional; details: OCI-LY19, 72 h, read-out: GI
OCI-Ly10 [20] = assay: Antitumor activity against human OCI-LY10 cells xenografted in CB.17 SCID mouse assessed as induction of tumor stasis at 12 mg/kg, po QD dosed 34 days after tumor cell inoculation; type: functional, organism-based

Row | Compound | IC50 [1] [nM] | IC50 [2] [nM] | logD [3] | hepatocyte CLint [4] [µL/min/1e6 cells] | hepatocyte CLint [5] [µL/min/1e6 cells] | Papp [6] [×10⁻⁶ cm/s] | efflux ratio [7] | clearance [8] [mL/min/kg] | bioavailability [9] [%] | inhibition of growth at 0.0003 µM (OCI-Ly10 [10]) [%] | inhibition of growth at 0.0021 µM (OCI-Ly10 [11]) [%] | inhibition of growth at 0.0042 µM (OCI-Ly10 [12]) [%] | inhibition of growth at 0.01 µM (OCI-Ly10 [13]) [%] | inhibition of growth at 0.042 µM (OCI-Ly10 [14]) [%] | inhibition of growth at 0.0003 µM (OCI-LY19 [15]) [%] | inhibition of growth at 0.0021 µM (OCI-LY19 [16]) [%] | inhibition of growth at 0.0042 µM (OCI-LY19 [17]) [%] | inhibition of growth at 0.01 µM (OCI-LY19 [18]) [%] | inhibition of growth at 0.042 µM (OCI-LY19 [19]) [%] | Activity (OCI-Ly10 [20])
1 | COC(=O)N1CCN([C@H]2CC[C@H](Nc3nc(Nc4cnn(C)c4)nc4ccc(C(C)C#N)nc34)CC2)CC1 (stereo not given in full) | 6 | 130 | 2.8 | 26 | – | – | – | – | – | – | – | – | – | – | – | – | – | – | – | –
2 | COC(=O)N1CCN([C@H]2CC[C@H](Nc3nc(Nc4cnn(C)c4)nc4ccc(C5(C#N)CC5)nc34)CC2)CC1 | 17 | 61 | 3.2 | 7.3 | 4 | – | – | – | – | – | – | – | – | – | – | – | – | – | – | –
3 | CC(=O)N1CCN([C@H]2CC[C@H](Nc3ncnc4ccc(C#N)cc34)CC2)CC1 | 122 | 420 | 1.4 | < 1 | < 1 | 4.2 | 19 | 19 | – | – | – | – | – | – | – | – | – | – | – | –
4 | COC(=O)N1CCN([C@H]2CC[C@H](Nc3nc(Nc4cnn(C)c4)nc4ccc(C)nc34)CC2)CC1 | 9 | 140 | 2.6 | 10 | 13 | 7.9 | 0.9 | – | – | – | – | – | – | – | – | – | – | – | – | –
5 | Cn1cc(Nc2nc(N[C@H]3CC[C@H](N4CCOCC4)CC3)c3cc(C#N)ccc3n2)cn1 | 2 | 59 | 2.6 | 18 | < 1 | – | 94 | 31 | 5 | – | – | – | – | – | – | – | – | – | – | –
6 | COC(=O)N1CCN([C@H]2CC[C@H](Nc3ncnc4ccc(C)nc34)CC2)CC1 | 279 | 840 | 2 | 5.2 | < 1 | 35 | 0.8 | – | – | – | – | – | – | – | – | – | – | – | – | –
7 | C=CC(=O)N1CCC[C@@H](n2nc(-c3ccc(Oc4ccccc4)cc3)c3c(N)ncnc32)C1 [IBRUTINIB] | – | – | – | – | – | – | – | – | – | 5 | 36 | 60 | 83 | 93 | 3 | 7 | 6 | 7 | 11 | Active

Source: ChEMBL document CHEMBL4321825, “Discovery of a Series of 5-Azaquinazolines as Orally Efficacious IRAK4 Inhibitors Targeting MyD88L265P Mutant Diffuse Large B Cell Lymphoma” (J Med Chem, 2019)
